According to patent publication US8242152B2, “Use of 4-[(4-thiazolyl)phenoxy]alkoxy-benzamidine derivatives for the prophylaxis and treatment of osteoporosis” (Dong Wha Pharmaceutical Co., Ltd., priority 2001, dated 2012):

What was measured:
[1] = tested on: LTB4-induced osteoclast formation; assay: LTB4-induced osteoclast formation in rabbit osteoclast cultures, co-treatment and pre-treatment (Example 6); assay type: cell-based
Description: (§1) Rabbit osteoclasts were isolated as described by Victoria Tai's report (Doctoral Dissertation, 1997, Graduate Department of Pharmacology, University of Toronto) and Rraser P. Coxon et al. (Methods in Molecular Medicine, vol 80). Neonatal rabbits (New Zealand White) were sacrificed by ether-inhaling method under a hood. The removed long bones were dissected free of attached soft tissues and placed into ice-cold PBS. The long bones were cut longitudinally and mechanically curetted in 10 ml medium 199 with antibiotics (10 ug/ml penicillin G and 50 ug/ml gentamycin) in a glass Petri dish. Each bone was curetted with a scalpel blade and was finely minced. The fragments were then vigorously agitated by pipetting up and down using a pasteur pipette and vortex-mixed for 30 seconds. The fragments were allowed to settle and the cell suspension was then transferred to a 50 ml tube and the previous step repeated three times to a total volume of 40 ml. The bone fragments were allowed to settle (>1 min). The cell suspension was then transferred to a new 50 ml tube, passed through a 40 um cell strainer and centrifuged at 200 g for 8 minutes. The supernatant was removed and the pellet was immediately resuspended in α-MEM with 2% FBS (bicarbonate buffered medium).
(§2) 40 uL droplets of osteoclast-containing suspensions were plated onto 60 mm tissue culture plastic dishes or on dentine slices in 96-well microtiter plates in 2% medium. The cells were allowed ninety minutes for attachment before the addition of 2 mL α-MEM with 2% FBS. After 24 hr culture, cells were washed to remove non-adherent cells and replaced with fresh medium as describes below.
After 24 hr in culture, the medium was removed and replaced with fresh medium containing both LTB4 receptor antagonist (1000 nM) and LTB4 (100 nM) or both DW1350 (1000 nM) and LTB4 (100 nM). The cultures were continued for an additional 48 hrs.
After 6 hrs in culture, the medium was removed and cells were pretreated with LTB4 receptor antagonists such as LY292728 (Journal of Medical Chemistry, 1995, vol. 38, No. 10, p 4411-4432), SB209247 (Journal of Medical Chemistry, 1996, vol. 39, No. 19, p 3837-3841), LY293111(Journal of Medical Chemistry, 1995, vol. 38, No. 10, p 4411-4432) and LY223982 (Journal of Medical Chemistry, 1993, vol. 36, p 3333-3340) or DW1350-containing medium and culture continued for 18 hrs. The medium was replaced with medium containing both LTB4 receptor antagonist and LTB4 or DW1350 and LTB4. The cultures were continued for an additional 48 hrs.
(§3) All cells were cultured at 37° C. in a humidified atmosphere of 95% air and 5% CO2 in bicarbonate buffered medium at pH 7.4.
(§4) Differentiated osteoclasts are multinucleated cells and have specific enzyme activity, such as ‘tartrate-resistant acid phosphatase (TRAP)’. Therefore, Osteoclast formation was determined by counting the number of TRAP-positive multinucleated cells (TRAP(+) MNCs).
(§5) After culture, the cells were fixed with 10% neutral buffered formalin for 30 min at 4° C., washed twice in distilled water and stained for TRAP activity by incubating with substrate. The number of TRAP(+)MNC with more than 2 nuclei was counted under photomicroscope.
(§6) Results were expressed as mean number of TRAP(+)MNC±SD of All experiments were done at least twice. Statistical analysis was performed for each experiment by student t-test.

LTB4 receptor = LTB4 receptor (Homo sapiens, UniProt Q15722); settings: cited from earlier work
LTB4 receptor, sequence (Q15722 whole entry): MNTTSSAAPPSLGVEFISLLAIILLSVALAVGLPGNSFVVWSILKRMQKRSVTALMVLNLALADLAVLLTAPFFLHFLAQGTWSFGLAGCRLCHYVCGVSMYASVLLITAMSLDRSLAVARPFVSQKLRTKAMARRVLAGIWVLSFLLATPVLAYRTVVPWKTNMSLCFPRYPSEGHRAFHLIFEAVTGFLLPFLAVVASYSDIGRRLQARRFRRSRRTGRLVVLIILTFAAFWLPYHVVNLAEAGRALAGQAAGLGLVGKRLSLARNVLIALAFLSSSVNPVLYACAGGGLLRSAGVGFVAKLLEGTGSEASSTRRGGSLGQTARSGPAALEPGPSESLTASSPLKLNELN

rabbit osteoclasts = assay: TRAP(+) MNC formation in isolated rabbit osteoclast cultures, single treatment without LTB4 (Example 6); assay type: cell-based; settings: for number of TRAP(+) MNCs / osteoclast formation: 1000 nM, single treatment without LTB4, dentine slices, 48 hrs (FIG. 3-8)
Description: as §1, §2
After 24 hr in culture, the medium was replaced with fresh medium containing control, LTB4 receptor antagonists (1000 nM), DW1350 (10, 100 and 1000 nM) or LTB4 (100 nM) and the cultures were continued for an additional 48 hrs.
as §3, §4, §5, §6

[2] = 1000 nM in the presence of 100 nM LTB4 (FIGS. 6˜8), regimen not separated

Compound | LTB4-stimulated osteoclast formation [1, 2] | IC50 (LTB4 receptor) | number of TRAP(+) MNCs / osteoclast formation (rabbit osteoclasts) | LTB4-stimulated osteoclast formation ([1]; pre-treatment 18 hrs, then 1000 nM compound + 100 nM LTB4 for 48 hrs, dentin slices) | LTB4-stimulated osteoclast formation ([1]; simultaneous treatment: 1000 nM compound + 100 nM LTB4, 48 hrs, dentin slices) | Ki (LTB4 receptor) | number of TRAP(+) MNCs (rabbit osteoclasts; 10˜1000 nM, 48 hours, tissue culture dish, single treatment (FIG. 1, 2))
COc1ccc(/C=C/CCCCOc2ccc(C(=O)c3cccc(C(=O)O)c3)cc2CCC(=O)O)cc1 [LY223982] | significantly abolished LTB4-stimulated osteoclast formation | 13 nM | did not change the number of osteoclasts |  |  |  | 
CCc1cc(-c2ccc(F)cc2)c(O)cc1OCCCOc1ccc2c(=O)c3cc(C(=O)O)ccc3oc2c1CCC(=O)O [LY292728] |  |  | no significant effect on osteoclast formation compared to the control culture | appeared to suppress the formation of osteoclasts | significantly abolished osteoclast formation increased by LTB4 | 0.5 nM | no significant effect on the number of osteoclasts
CCCc1c(OCCCOc2cc(O)c(-c3ccc(F)cc3)cc2CC)cccc1Oc1ccccc1C(=O)O [LY293111] | significantly abolished LTB4-stimulated osteoclast formation |  | did not change the number of osteoclasts |  |  | 25 nM | 
O=C(O)/C=C/c1nc(CSc2c(Cl)cccc2Cl)ccc1OCCc1ccccc1 [SB209247] | significantly abolished LTB4-stimulated osteoclast formation |  | did not change the number of osteoclasts |  |  |  | 
